# Data: patent US8591892B2, “FTY720 increases CD74 expression and sensitizes cancer cells to anti-CD74 antibody-mediated cell death” (The Ohio State University, priority 2011, dated 2013)
# “Also recorded” adds a separate entry of the source. Read-outs that look alike come from different tables or passages of the source.
# Legend:
# [1] = test system: MCL cell lines; experiment: Cytotoxicity of OSU-2S; format: cell-based
# [2] = test system: MCL cell lines (Jeko-1, Mino, UPN-1, Z-138); experiment: Immunoblot for LC3-I/LC3-II (autophagic flux); format: cell-based, human
# Text: (§1) FIG. 1. […] Actin was used as loading control. […] Actin was used as loading control.
# [3] = test system: Jeko-1 and Mino cells; experiment: Acridine orange staining, flow cytometry (lysosomal membrane permeability); format: cell-based, human; conditions: 8 hours, vs untreated control
# Method: Cells were then stained with AO (1 μg/mL) for 15 minutes. The relative changes in FL1 fluorescence were assessed by flow cytometry. Representative histograms summarizing AO fluorescence intensity of MCL treated with FTY720, chloroquine, rapamycin or combinations are shown (MFI of treated cells is normalized to the untreated controls. (C) Jeko-1 and Mino cells were treated with FTY720 at the indicated concentration in the presence or absence of cathepsin inhibitor III (5 and 10 μM). Cell death was determined by annexin V/PI staining and flow cytometry at 8 hours. Data are shown as percentage of annexin V−/PI− cells (live cells).
# To assess lysosomal membrane permeability, FTY720 treated cells were incubated with acridine orange (MOLECULAR PROBES; INVITROGEN).
# AO at acidic pH (i.e., lysosomal) fluoresces red, however, when AO leaks into a neutral pH (i.e., cytosolic), it causes an increase in green fluorescence that can be detected by flow cytometry.
# [4] = test system: Jeko-1 and Mino cell lines; experiment: Transmission electron microscopy of ultrastructural changes; format: cell-based, human; conditions: Jeko and Mino cells; chloroquine 40 μM, FTY720 10 μM
# Method: Monolayer cells were grown in chamber slides in medium containing chloroquine (40 μM) or FTY720 (10 μM) for 12 hours. Prior to processing, the cells were fixed for 30 min in 2.5% glutaraldehyde in 0.1 M phosphate buffer pH 7.4. […] Images were obtained with a PEI TECHNAI™ G2 Spirit Transmission Electron Microscope.
# We next examined ultrastructural morphologic changes in Jeko-1 and Mino cell lines treated with FTY720 using TEM.
# [5] = test system: MCL cell lines (Jeko-1, Mino, UPN-1, Z-138); experiment: Immunoblot for p62; format: cell-based, human; conditions: UPN-1 and Z-138 cells, 24 hours
# Text: as §1
# [6] = test system: MCL cell lines (Jeko-1, Mino, UPN-1, Z-138); experiment: Confocal microscopy of total cellular LC3; format: cell-based, human
# [7] = test system: surface CD74 on Jeko-1 and Mino cells; experiment: CD74-FITC staining and flow cytometry (CD74 MFI); format: cell-based, human; conditions: 8 and 24 hours, vs untreated control or rapamycin
# Method: (B) CD74 MFI of MCL cells treated with FTY720, chloroquine or rapamycin at the indicated concentrations after 8 and 24 hours. […] P values are calculated comparing FTY720, chloroquine and rapamycin treatment to the untreated control.
# MCL cell lines were treated with FTY720, chloroquine (SIGMA, St Louis, Mo.) or rapamycin (CALBIOCHEM, San Diego, Calif.) for 8 and 24 hours and CD74 mean fluorescence intensity (MFI) was determined relative to a specific isotype control. After treatment, cells (1×10^6) were washed in phosphate-buffered saline (PBS), stained with CD74-FITC (BD BIOSCIENCES, San Jose, Calif.) for 15 minutes at 4° C., then rinsed in PBS and analyzed by flow cytometry (EPICS-XL™; BECKMAN COULTER, Fullerton, Calif.). A total of 10,000 events were collected and analyzed using Windows Multiple Document Interface for Flow Cytometry (WinMDI, Scripps Research Institute, San Diego, Calif.).
# To determine the influence of FTY720 treatment on CD74 surface levels, Jeko-1 and Mino cells were incubated with FTY720, chloroquine or rapamycin for 8 and 24 hours. CD74 MFI values were determined by CD74-FITC staining and flow cytometry.
# [8] = test system: Panc-1; experiment: Flow cytometry of CD74, HLA-DR, CEACAM5 with directly labeled MAbs, with and without IFN-γ; format: cell-based
# Method: (§2) Expression of CD74, HLA-DR, and carcinoembryonic antigen (CEACAM5) was determined in untreated cells and cells exposed to 200 U of IFN-γ for 48 h by flow cytometry. Cells were stained with directly labeled MAbs in comparison to a directly labeled human IgG control. Antibodies were labeled using ALEXA FLUOR® 488 (Invitrogen, Carlsbad, Calif.). For determination of cytoplasmic antigen expression, cells were permeabilized prior to staining using the BD CYTOFIX/CYTOPERM™ kit (BD Biosciences, San Jose, Calif.).
# [9] = test system: Moser; experiment: as above; format: cell-based
# Method: as §2
# [10] = test system: U118; experiment: as above; format: cell-based
# Method: as §2
# [11] = test system: BxPC-3; experiment: as above; format: cell-based
# Method: as §2
# [12] = test system: Lovo; experiment: as above; format: cell-based
# Method: as §2
# [13] = test system: HT29; experiment: as above; format: cell-based
# Method: as §2
# [14] = test system: KMS11; experiment: as above; format: cell-based
# Method: as §2
# [15] = test system: CAG; experiment: as above; format: cell-based
# Method: as §2
# [16] = test system: Aspc-1; experiment: as above; format: cell-based
# Method: as §2
# [17] = test system: U87; experiment: as above; format: cell-based
# Method: as §2
# [18] = test system: LS174T; experiment: as above; format: cell-based
# Method: as §2
# [19] = test system: TU118; experiment: as above; format: cell-based
# Method: as §2
# [20] = test system: Capan-1; experiment: as above; format: cell-based
# Method: as §2
# [21] = test system: RL; experiment: as above; format: cell-based
# Method: as §2
# [22] = test system: FSCCL; experiment: as above; format: cell-based
# Method: as §2
# [23] = molecular target: DDD of the RII form of PKA (RIIα dimers) (Homo sapiens, UniProt P13861); conditions: read-out: binding constant for DDD; cited from earlier work
# [24] = test system: RII isoform of PKA compared with the RI isoform; conditions: cited from earlier work
# [25] = test system: CD74 in Jeko-1, Mino, UPN-1 and Z-138 cells; experiment: Confocal microscopy of total CD74 with rhodamine-conjugated milatuzumab; format: cell-based, human; conditions: Jeko-1 and Mino cells, non-immobilized, 5 μg/ml
# Method: Cells were stained with an anti-CD74 antibody (FITC conjugated and CD74 MFI was measured by flow cytometry. Representative histograms summarizing the MFI of untreated and treated Jeko-1, Mino, UPN-1 and Z-138 cells are shown. (C) The amount of total cellular CD74 was determined by confocal microscopy. Jeko-1, Mino, UPN-1 and Z-138 cells were treated with FTY720 at the indicated doses, chloroquine (40 μM), rapamycin (10 μM) or the combination of FTY720 and chloroquine, for 4, 8 and 24 hours. CD74 fluorescence intensity was measured in 4 microscopic fields and integrated intensity was averaged relative to the number of cells per field (˜180-220 cells per condition).
# MCL cells for confocal fluorescence microscopy were fixed and stained as previously described (Alinari et al., 2011, Blood 117:4530-41). Briefly, after exposure to drugs, cells were made adherent on a microscope slide by centrifugation. Immediately after cytospin, cells were fixed in cold acetone for two minutes. For CD74 immunofluorescence, the cells were incubated with rhodamine-conjugated milatuzumab. […] Nuclei were stained blue with DAPI (Vector laboratories, Burlingame, Calif.). […] For quantification, 4 microscopic fields per slide were analyzed. Nuclei count was performed using an edge constrained marker-controlled watershed for iterative fluorescence microscopic cell image splitting.
# Sequence of DDD of the RII form of PKA (RIIα dimers) (P13861 whole entry, canonical isoform): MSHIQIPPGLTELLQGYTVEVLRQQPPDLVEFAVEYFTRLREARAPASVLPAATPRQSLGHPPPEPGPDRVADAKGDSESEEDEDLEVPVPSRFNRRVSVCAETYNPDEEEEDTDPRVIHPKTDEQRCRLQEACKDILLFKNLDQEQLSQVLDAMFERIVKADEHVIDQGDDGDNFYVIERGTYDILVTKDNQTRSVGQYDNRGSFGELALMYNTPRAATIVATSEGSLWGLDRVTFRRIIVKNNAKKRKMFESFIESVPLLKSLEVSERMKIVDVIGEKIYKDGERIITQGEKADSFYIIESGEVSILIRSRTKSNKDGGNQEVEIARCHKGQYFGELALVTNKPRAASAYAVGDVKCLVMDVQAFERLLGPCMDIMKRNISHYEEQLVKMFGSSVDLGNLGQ
compound,measurement,setting,value
"CCC[C@@](N)(CO)CCc1ccc(OCCCCCC(C)C)cc1 [OSU-2S, (S)-2-amino-2-(4-[(6-methylheptyl)-oxy]phenethyl)pentan-1-ol]",cytotoxicity,[1]; MCL cell lines,exhibited cytotoxicity
same,cytotoxic activity,[1]; MCL cell lines and primary cells,significant cytotoxic activity
same,LC3-II levels,"[2]; Jeko-1, Mino and Z-138 cell lines, 24 hours, Western blotting",increased levels of LC3-II
CCN(CC)CCCC(C)Nc1ccnc2cc(Cl)ccc12 (stereo not drawn) [chloroquine],acridine orange green fluorescence (FL1),[3],slight increase of green fluorescence
same,ultrastructural morphologic changes (TEM),[4],increased accumulation of autophagosomes
same,p62 levels,[5],significant increase of p62 levels
same,LC3 fluorescence intensity,[6],statistically significant increase in LC3 fluorescence intensity
same,CD74 MFI (surface),[7],slight increase of CD74 MFI
same,LC3-II levels,[2],significant increase in LC3-II levels; also recorded: increased levels of LC3-II
"Labetuzumab: anti-CEA antibody, directly labeled",% change of cell surface expression with IFNγ,[8]; Panc-1,6.3%
same,% change of cytoplasmic expression with IFNγ,[8]; Panc-1,161.2%
same,Cell surface expression (staining with directly labeled MAb),"[8]; Panc-1 + IFNγ 200 U, 48 h",4.4
same,Cell surface expression (staining with directly labeled MAb),"[8]; Panc-1, without IFN-γ",4.1
same,% change of cell surface expression with IFNγ,[9]; Moser,20.9%
same,% change of cytoplasmic expression with IFNγ,[9]; Moser,41.8%
same,Cell surface expression (staining with directly labeled MAb),"[9]; Moser + IFNγ 200 U, 48 h",77.2
same,Cell surface expression (staining with directly labeled MAb),"[9]; Moser, without IFN-γ",63.8
same,% change of cell surface expression with IFNγ,[10]; U118,2.4%
same,% change of cytoplasmic expression with IFNγ,[10]; U118,78.2%
same,Cell surface expression (staining with directly labeled MAb),"[10]; U118 + IFNγ 200 U, 48 h",5.6
same,Cell surface expression (staining with directly labeled MAb),"[10]; U118, without IFN-γ",5.5
same,% change of cell surface expression with IFNγ,[11]; BxPC-3,25.6%
same,% change of cytoplasmic expression with IFNγ,[11]; BxPC-3,52.7%
same,Cell surface expression (staining with directly labeled MAb),"[11]; BxPC-3 + IFNγ 200 U, 48 h",7.0
same,Cell surface expression (staining with directly labeled MAb),"[11]; BxPC-3, without IFN-γ",5.6
same,% change of cell surface expression with IFNγ,[12]; Lovo,48.6%
same,% change of cytoplasmic expression with IFNγ,[12]; Lovo,52.4%
same,Cell surface expression (staining with directly labeled MAb),"[12]; Lovo + IFNγ 200 U, 48 h",84.4
same,Cell surface expression (staining with directly labeled MAb),"[12]; Lovo, without IFN-γ",56.8
same,% change of cell surface expression with IFNγ,[13]; HT29,213.5%
same,% change of cytoplasmic expression with IFNγ,[13]; HT29,122.7%
same,Cell surface expression (staining with directly labeled MAb),"[13]; HT29 + IFNγ 200 U, 48 h",34.9
same,Cell surface expression (staining with directly labeled MAb),"[13]; HT29, without IFN-γ",11.1
same,% change of cell surface expression with IFNγ,[14]; KMS11,7.1%
same,% change of cytoplasmic expression with IFNγ,[14]; KMS11,−11.4%
same,Cell surface expression (staining with directly labeled MAb),"[14]; KMS11 + IFNγ 200 U, 48 h",2.3
same,Cell surface expression (staining with directly labeled MAb),"[14]; KMS11, without IFN-γ",2.1
same,% change of cell surface expression with IFNγ,[15]; CAG,3.0%
same,% change of cytoplasmic expression with IFNγ,[15]; CAG,27.4%
same,Cell surface expression (staining with directly labeled MAb),"[15]; CAG + IFNγ 200 U, 48 h",5.2
same,Cell surface expression (staining with directly labeled MAb),"[15]; CAG, without IFN-γ",5.0
same,% change of cell surface expression with IFNγ,[16]; Aspc-1,26.3%
same,% change of cytoplasmic expression with IFNγ,[16]; Aspc-1,53.2%
same,Cell surface expression (staining with directly labeled MAb),"[16]; Aspc-1 + IFNγ 200 U, 48 h",66.8
same,Cell surface expression (staining with directly labeled MAb),"[16]; Aspc-1, without IFN-γ",52.9
same,% change of cell surface expression with IFNγ,[17]; U87,23.8%
same,% change of cytoplasmic expression with IFNγ,[17]; U87,79.0%
same,Cell surface expression (staining with directly labeled MAb),"[17]; U87 + IFNγ 200 U, 48 h",4.5
same,Cell surface expression (staining with directly labeled MAb),"[17]; U87, without IFN-γ",3.7
same,% change of cell surface expression with IFNγ,[18]; LS174T,167.9%
same,% change of cytoplasmic expression with IFNγ,[18]; LS174T,195.9%
same,Cell surface expression (staining with directly labeled MAb),"[18]; LS174T + IFNγ 200 U, 48 h",163.7
same,Cell surface expression (staining with directly labeled MAb),"[18]; LS174T, without IFN-γ",61.1
same,% change of cell surface expression with IFNγ,[19]; TU118,13.0%
same,% change of cytoplasmic expression with IFNγ,[19]; TU118,115.5%
same,Cell surface expression (staining with directly labeled MAb),"[19]; TU118 + IFNγ 200 U, 48 h",5.29
same,Cell surface expression (staining with directly labeled MAb),"[19]; TU118, without IFN-γ",4.68
same,Cell surface expression (staining with directly labeled MAb),"[20]; Capan + IFNγ 200 U, 48 h",48.8
same,% change of cell surface expression with IFNγ,[20]; Capan-1,−15.1%
same,% change of cytoplasmic expression with IFNγ,[20]; Capan-1,8.7%
same,Cell surface expression (staining with directly labeled MAb),"[20]; Capan-1, without IFN-γ",57.5
same,% change of cell surface expression with IFNγ,[21]; RL,17.3%
same,% change of cytoplasmic expression with IFNγ,[21]; RL,37.9%
same,Cell surface expression (staining with directly labeled MAb),"[21]; RL + IFNγ 200 U, 48 h",2.9
same,Cell surface expression (staining with directly labeled MAb),"[21]; RL, without IFN-γ",2.4
same,% change of cell surface expression with IFNγ,[22]; FSCCL,7.6%
same,% change of cytoplasmic expression with IFNγ,[22]; FSCCL,100.7%
same,Cell surface expression (staining with directly labeled MAb),"[22]; FSCCL + IFNγ 200 U, 48 h",2.8
same,Cell surface expression (staining with directly labeled MAb),"[22]; FSCCL, without IFN-γ",2.6
QIEYLAKQIVDNAIQQA [AKAP-IS],Kd,[23],0.4 nM
QIEYVAKQIVDYAIHQA [SuperAKAP-IS],selectivity for RII over RI isoform of PKA,[24],five order of magnitude higher selectivity
rhodamine-conjugated milatuzumab: fluorescence labeled milatuzumab made with NHS-rhodamine,internalization of CD74,[25],rapid internalization of CD74
